Several values for one entry are separate records, joined by “and”; a condition that tells them apart may be missing. Equal entries are not always repeated. Where two headings read alike, the source gives them in different places.
What was measured:
HIV-1 WT virus (NL4-3) = test: microbe, parasite or virus in culture; format: cell-based; settings: for EC50 / EC50 (μM): Table 11, CEMSS/NL4-3, NRVC = no reduction in viral CPE; for EC50: read-out: EC50; for inhibitory potency against HIV-1 (CIC50), result in words: CEMSS cell culture, WT virus (NL4-3), relative to parent compounds 1 and 2; for cytotoxicity and anti-viral effect, summary graph, result in words: FIGS. 10-12
Protocol: Evaluation of these compounds for the inhibition of HIV-1 was determined as the fifty percent cell culture inhibitory concentration (CIC50) in CEMSS cell culture with WT virus (NL4-3).
In this Example, the antiviral and cellular toxicity of NNRTIs was investigated, using the cytopathic cell killing assay described by Yang (Yang et al., “Characteristics of a Group of Non-nucleoside Reverse Transcriptase Inhibitors with Structural Diversity and Potent Anti-Human Immunodeficiency Virus Activity,” Leukemia 9:S75-S85 [1995]). Briefly, in this method cells (e.g., the CEM-SS cell line, available from the NIAID AIDS Research and Reference Program [ARRRP]) were seeded at a density of 5×10^3 cells/well, into the wells of a 96-well microtiter plate. The cells were then infected with HIV virus (either mutant or WT), at a multiplicity of infection (MOI) previously determined to provide complete cell killing by 6 days of culture post-infection (e.g., MOI of 0.01-0.05). Each of the HIV isolates was pre-titered to induce equivalent levels of infection based on cell killing or virus production, prior to their use in these assays. A range of test compound concentrations was added to the wells in triplicate (e.g., serial half-log dilutions) to evaluate inhibition of HIV infection. Controls for each assay included drug controls (drug colorimetric control wells), drug cytotoxicity control wells (cells with drug), virus control wells (cells with virus), and cell viability controls (cells only). Positive control drugs (e.g. AZT and ddC) were also run in parallel.
After six days of incubation at 37° C., cell viability was determined spectrophotometrically at 450 nm for each well, using the metabolic reduction of XTT to a soluble colored formazan. (See, Gartner and Popovic, “Virus Isolation and Production, in Aldovini and Walker (eds.), Techniques in HIV Research, Stockton Press, NY, pp. […] [1991]; and Nara and Fischinger, “Quantitative Infectivity Assay for HIV-1 and HIV-2, ” Nature 332:469-470 [1988]).
The in vitro therapeutic index (TI50) was defined as the fold-difference between the EC50 and IC50. The results for the various compounds are included in FIGS. 8 and 19.

HIV-1 WT RT = HIV-1 WT RT (Human immunodeficiency virus type 1 group M subtype B, UniProt P03366); test: biochemical; format: biochemical; settings: for inhibition at 10 µM: read-out: % inhibn (10 μM)
[1] = Human immunodeficiency virus 1, NL43, CEM-SS

Row | SMILES | melting point | other results
1 | CC(=O)OCc1cccc2c1nc(-c1c(F)cccc1F)n2Cc1c(F)cccc1F [Compound 51, 1-(2,6-difluorobenzyl)-2-(2,6-difluorophenyl)-4-acetoxymethylbenzimidazole] | – | EC50 (HIV-1 WT virus (NL4-3); [1]): 59 nM
2 | OCc1cccc2c1nc(-c1c(F)cccc1F)n2Cc1c(F)cccc1F [Compound 67, 1-(2,6-Difluorobenzyl)-2-(2,6-difluorophenyl)-4-hydroxymethylbenzimidazole] | – | EC50 (HIV-1 WT virus (NL4-3); [1]): 23 nM
3 | O=C(c1c(F)cccc1F)n1c(-c2c(F)cccc2F)nc2ccccc21 [Compound 47, 1-(2,6-difluorobenzoyl)-2-(2,6-difluorophenyl)benzimidazole] | – | inhibition at 10 µM (HIV-1 WT RT; Table 2, 10 μM drug, WT RT, rC-dG template primer): 8%; RT inhibition, result in words (HIV-1 WT RT; WT RT): did not show appreciable RT inhibition activity
4 | O=C(O)c1cccc2c1nc(-c1c(F)cccc1F)n2Cc1c(F)cccc1F [Compound 64, 1-(2,6-Difluorobenzyl)-2-(2,6-difluorophenyl)benzimidazole-4-carboxylate] | 179 to 180 °C and 178 to 180 °C | inhibitory potency against HIV-1 (CIC50), result in words (HIV-1 WT virus (NL4-3)): clearly detrimental to potency; EC50 (μM) (HIV-1 WT virus (NL4-3)): NRVC
5 | Cc1cccc2c1nc(CO)n2Cc1c(F)cccc1F [Compound 48, 1-(2,6-difluorobenzyl)-2-hydroxymethyl-4-methylbenzimidazole] | – | EC50 (HIV-1 WT virus (NL4-3)): 2400 nM; inhibition at 10 µM (HIV-1 WT RT; Table 3, 10 μM drug, WT RT, rC-dG template primer): 12%; % inhibn (1 μM) (HIV-1 WT RT; Table 6, 1 μM drug, WT HIV-1 RT, average of two experiments done in triplicates): 51%; IC50 (HIV-1 WT RT; Table 11, WT RT, read-out: IC50): 1880 nM
6 | COc1cccc2c1nc(C1CC1)n2Cc1c(F)cccc1F | 136 to 139 °C | –
7 | CC(=O)N(C)Cc1cccc2c1nc(-c1c(F)cccc1F)n2Cc1c(F)cccc1F [Compound 73, 1-(2,6-Difluorobenzyl)-2-(2,6-difluorophenyl)-4-(N-acetyl-N-methyl)-aminomethylbenzimidazole] | – | EC50 (HIV-1 WT virus (NL4-3)): 580 nM
8 | Cc1cccc2c1nc(-c1c(F)cccc1F)n2Cc1ccccc1 [Compound 29, 1-benzyl-2-(2,6-difluorophenyl)-4-methylbenzimidazole] | 112 to 117 °C | RT inhibition, result in words (HIV-1 WT RT; WT RT): decrease in inhibition
9 | Oc1cccc2c1nc(-c1c(F)cccc1F)n2Cc1c(F)cccc1F [Compound 52, 1-(2,6-Difluorobenzyl)-2-(2,6-difluorophenyl)-4-hydroxyl-benzimidazole] | 257 to 259 °C | EC50 (HIV-1 WT virus (NL4-3); [1]): 650 nM
10 | N=C(NO)c1cccc2c1nc(-c1c(F)cccc1F)n2Cc1c(F)cccc1F [Compound 61, N-hydroxy 1-(2,6-difluorobenzyl)-2-(2,6-difluorophenyl)benzimidazole-4-carboxamidine] | 214 to 216 °C and 213 to 216 °C | inhibitory potency against HIV-1 (CIC50), result in words (HIV-1 WT virus (NL4-3)): clearly detrimental to potency; EC50 (HIV-1 WT virus (NL4-3); [1]): 190 nM
11 | Fc1cccc(F)c1COCc1nc2ccccc2n1Cc1c(F)cccc1F [Compound 32, 1-(2,6-difluorobenzyl)-2-(2,6-difluorobenzyloxymethyl)benzimidazole] | 109 °C | –
12 | Fc1cccc(F)c1Cn1c(-c2c(F)cccc2F)nc2c(CCl)cccc21 [Compound 69, 1-(2,6-difluorobenzyl)-2-(2,6-difluorophenyl)-4-chloromethylbenzimidazole] | 143 to 144 °C | EC50 (HIV-1 WT virus (NL4-3); [1]): 180 nM
13 | NC(=O)c1cccc2c1nc(-c1c(F)cccc1F)n2Cc1c(F)cccc1F [Compound 62, 1-(2,6-difluorobenzyl)-2-(2,6-difluorophenyl)benzimidazole-4-carboxylic acid amide] | 260 to 261 °C | inhibitory potency against HIV-1 (CIC50), result in words (HIV-1 WT virus (NL4-3)): clearly detrimental to potency; EC50 (HIV-1 WT virus (NL4-3); [1]): 4900 nM
14 | Cc1cc(C)c2nc(-c3c(F)cccc3F)n(Cc3c(F)cccc3F)c2c1 | 153 to 154 °C | –
15 | N#Cc1cccc2c1nc(-c1c(F)cccc1F)n2Cc1c(F)cccc1F [Compound 60, 1-(2,6-difluorobenzyl)-2-(2,6-difluorophenyl)-4-cyanobenzimidazole] | – | EC50 (HIV-1 WT virus (NL4-3); [1]): 430 nM
16 | Cc1ccccc1-c1nc2ccccc2n1Cc1c(F)cccc1F [Compound 36, 1-(2,6-difluorobenzyl)-2-(2-methylphenyl)benzimidazole] | 139 °C | RT inhibition, result in words (HIV-1 WT RT; WT RT): two-fold decrease in RT inhibition
17 | CC(C)(O)c1cccc2c1nc(-c1c(F)cccc1F)n2Cc1c(F)cccc1F [Compound 65, 1-(2,6-Difluorobenzyl)-2-(2,6-difluorophenyl)-4-benzimidazoyl-2-propanol] | – | EC50 (HIV-1 WT virus (NL4-3)): 6340 nM
18 | CC(=O)NCc1cccc2c1nc(-c1c(F)cccc1F)n2Cc1c(F)cccc1F [Compound 72] | – | EC50 (μM) (HIV-1 WT virus (NL4-3)): NRVC
19 | COC(=O)c1cccc2c1nc(-c1c(F)cccc1F)n2Cc1c(F)cccc1F | 184 to 186 °C | –
20 | N#Cc1cccc2c1nc(-c1c(F)cccc1F)n2Cc1c(F)cccc1F [Compound 4007] | – | % inhibn (10 μM) (HIV-1 WT RT; Table 1, 10 μM drug, WT RT, rC-dG template primer): 26%
21 | Cc1cccc2c1nc(C(C)C)n2Cc1c(F)cccc1F [Compound 34, 1-(2,6-difluorobenzyl)-2-isopropyl-4-methylbenzimidazole] | 151 to 153 °C | cytotoxicity and anti-viral effect, summary graph, result in words (HIV-1 WT virus (NL4-3)): effective therapeutic dose
22 | O=Cc1cccc2c1nc(-c1c(F)cccc1F)n2Cc1c(F)cccc1F [Compound 68, 1-(2,6-Difluorobenzyl)-2-(2,6-difluorophenyl)-benzimidazole-4-carbaldehyde] | 151 to 153 °C | EC50 (HIV-1 WT virus (NL4-3); [1]): 120 nM
23 | Fc1cccc(F)c1Cn1c(-c2c(F)cccc2F)nc2cc(Br)ccc21 [Compound 38, 1-(2,6-Difluorobenzyl)-2-(2,6-difluorophenyl)-5-bromobenzimidazole] | 155 to 156 °C | cytotoxicity and anti-viral effect, summary graph, result in words (HIV-1 WT virus (NL4-3)): inactive
24 | Cc1cccc2c1nc(-c1c(F)cccc1F)n2Cc1c(Cl)cccc1Cl [Compound 30, 1-(2,6-dichlorobenzyl)-2-(2,6-difluorophenyl)-4-methylbenzimidazole] | 202 to 203 °C | RT inhibition, result in words (HIV-1 WT RT; WT RT): decrease in inhibition
25 | C=C(C)c1cccc2c1nc(-c1c(F)cccc1F)n2Cc1c(F)cccc1F [Compound 66, 1-(2,6-Difluorobenzyl)-2-(2,6-difluorophenyl)-4-isopropenylbenzimidazole] | 156 to 158 °C | EC50 (HIV-1 WT virus (NL4-3); [1]): 1440 nM

Second part, led by results:

Row | melting point | SMILES | other results
26 | 163 °C | Fc1cccc(F)c1Cn1c(-c2ccccc2)nc2ccccc21 | –
27 | 155 to 156 °C | Cc1cccc2c1nc(-c1c(F)cccc1F)n2Cc1c(F)c(F)c(F)c(F)c1F | –
28 | 136 °C and 136 to 137 °C | Fc1cccc(F)c1Cn1c(-c2c(F)cccc2F)nc2cc(Cl)ccc21 | –
29 | 171 to 172 °C | Cc1cccc2c1nc(-c1ccncc1)n2Cc1c(F)cccc1F | –
30 | 176 to 177 °C | Cc1ccc2c(nc(-c3c(F)cccc3F)n2Cc2c(F)cccc2F)c1C | –
31 | 147 to 149 °C | Cc1ccc2c(c1)nc(-c1c(F)cccc1F)n2Cc1c(F)cccc1F | –
32 | 152 to 153 °C | Fc1cccc(F)c1Cn1c(-c2c(F)cccc2F)nc2ccc(Cl)cc21 | –
33 | 99 °C | Cc1nc2ccccc2n1Cc1c(F)cccc1F [Compound 35, 1-(2,6-difluorobenzyl)-2-methylbenzimidazole] | –
34 | 177 °C and 177 to 178 °C | Cc1cccc2nc(-c3c(F)cccc3F)n(Cc3c(F)cccc3F)c12 | –
35 | 175 to 176 °C | Cc1cccc2c1nc(-c1ccc3ccccc3c1)n2Cc1c(F)cccc1F | –
36 | 168 to 169 °C | O=[N+]([O-])c1ccc2c(c1)nc(-c1c(F)cccc1F)n2Cc1c(F)cccc1F | –
37 | 131 to 132 °C | Cc1cccc2c1nc(-c1c(F)cccc1F)n2Cc1cccnc1 | –
38 | 172 to 173 °C | Cc1ccc2nc(-c3c(F)cccc3F)n(Cc3c(F)cccc3F)c2c1 | –
39 | 104 to 106 °C | O=S(=O)(c1ccccc1)n1c(-c2c(F)cccc2F)nc2ccccc21 | –
40 | 121 to 123 °C | Cc1cccc2c1nc(-c1cccc3ccccc13)n2Cc1c(F)cccc1F [Compound 37, 1-(2,6-difluorobenzyl)-2-(1-naphthyl)-4-methylbenzimidazole] | –
41 | 78 to 79 °C | CC(C)=CCn1c(-c2c(F)cccc2F)nc2c(C)cccc21 [(X = CH3) R = prenyl, 1-(3,3-dimethylallyl)-2-(2,6-difluorophenyl)-4-methylbenzimidazole] | –
42 | 186 to 188 °C | Cc1cccc2c1nc(-c1cccnc1)n2Cc1c(F)cccc1F | –

Source: patent US6894068B2, “Substituted benzimidazoles as non-nucleoside inhibitors of reverse transcriptase” (The United States of America as represented by the …, priority 1997, dated 2005)
